Source: article PMC8551951 (Biophysical Reviews, 2021)
In brackets after ≈: the same amount, converted by molar mass. Where two headings read alike, the source gives them in different places.

What was measured:
[1] = test system: thermal and mechanical sensitivities; RS and NOx levels; assay type: in vivo, Swiss mice; details: 1 mg kg-1, intragastric route
[2] = test system: C. neoformans (ATCC H99); test: microbe, parasite or virus in culture; assay type: cell-based; details: Cryptococcus neoformans
[3] = target: α-synuclein (Homo sapiens, UniProt P37840); assay type: cell-based, Saccharomyces cerevisiae; details: 0.1 mM, without fermentation
[4] = test system: Drosophila melanogaster; details: 48 hours
[5] = 2 mg/ml
[6] = test system: MV released from growth-plate femurs chondrocytes; assay type: biochemical, chicken
[7] = test system: learning and memory behavior; assay type: in vivo, Swiss mice; details: 10mg/kg, intragastrically
[8] = target: TRPV1 channel heterologously expressed in HEK293 cells (Homo sapiens, UniProt Q8NER1); test: cell-based; details: HEK293, read-out: % inhibition of capsaicin-induced TRPV1 currents
Chain of TRPV1 channel heterologously expressed in HEK293 cells (Q8NER1 whole entry): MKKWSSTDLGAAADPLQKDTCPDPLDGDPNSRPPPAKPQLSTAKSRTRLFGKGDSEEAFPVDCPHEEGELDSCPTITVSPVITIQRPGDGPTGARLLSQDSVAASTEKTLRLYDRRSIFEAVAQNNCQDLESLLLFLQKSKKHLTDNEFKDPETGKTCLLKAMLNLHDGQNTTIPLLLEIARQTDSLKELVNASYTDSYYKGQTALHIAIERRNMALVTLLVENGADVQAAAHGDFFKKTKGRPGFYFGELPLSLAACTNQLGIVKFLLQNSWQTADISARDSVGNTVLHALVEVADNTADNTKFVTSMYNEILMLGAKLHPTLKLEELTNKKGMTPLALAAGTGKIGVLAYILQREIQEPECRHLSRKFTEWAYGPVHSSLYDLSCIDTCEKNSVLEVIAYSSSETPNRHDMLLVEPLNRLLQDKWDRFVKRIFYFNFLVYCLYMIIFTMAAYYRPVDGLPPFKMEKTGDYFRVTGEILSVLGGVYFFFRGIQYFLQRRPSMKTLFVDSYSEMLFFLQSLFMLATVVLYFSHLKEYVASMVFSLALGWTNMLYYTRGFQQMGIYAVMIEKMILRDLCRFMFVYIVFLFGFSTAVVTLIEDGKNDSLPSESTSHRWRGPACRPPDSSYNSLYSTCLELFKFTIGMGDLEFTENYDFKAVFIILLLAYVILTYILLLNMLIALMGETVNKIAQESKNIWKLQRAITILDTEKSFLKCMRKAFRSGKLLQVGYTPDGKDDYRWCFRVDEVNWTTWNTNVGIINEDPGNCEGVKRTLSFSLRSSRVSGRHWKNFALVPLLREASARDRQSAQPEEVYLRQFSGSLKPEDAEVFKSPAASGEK

[9] = test system: glycated human erythrocyte; assay type: cell-based
[10] = test system: K562; assay type: cell-based
[11] = target: dihydroorotate dehydrogenase from Schistosoma mansoni (SmDHODH) (Schistosoma mansoni, UniProt G4VFD7)
Chain of dihydroorotate dehydrogenase from Schistosoma mansoni (SmDHODH) (G4VFD7 23-379 limits assumed): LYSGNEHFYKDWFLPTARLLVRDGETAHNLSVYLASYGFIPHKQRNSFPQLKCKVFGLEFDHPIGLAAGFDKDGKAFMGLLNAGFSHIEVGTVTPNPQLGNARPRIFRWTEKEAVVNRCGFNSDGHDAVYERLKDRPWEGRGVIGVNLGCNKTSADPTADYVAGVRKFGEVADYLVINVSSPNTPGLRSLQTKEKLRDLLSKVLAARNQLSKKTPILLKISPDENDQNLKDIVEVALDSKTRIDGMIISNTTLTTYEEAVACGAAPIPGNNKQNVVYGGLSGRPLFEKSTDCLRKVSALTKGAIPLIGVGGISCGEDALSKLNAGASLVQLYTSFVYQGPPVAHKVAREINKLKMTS

[12] = target: gill V(H+)-ATPase; assay type: biochemical, Macrobrachium amazonicum; details: read-out: constant enzyme inhibitor, 25 °C
[13] = test system: CE-AρBza serine proteases; assay type: biochemical, Canavalia ensiformis
[14] = test system: Leishmania braziliensis old yellow enzyme (LbOYE); assay type: biochemical
[15] = test system: K562 cell line
[16] = test system: S. saprophyticus; assay type: cell-based
[17] = target: Ca2+-dependent BK channel (Homo sapiens, UniProt Q12791); assay type: cell-based
Chain of Ca2+-dependent BK channel (Q12791 whole entry): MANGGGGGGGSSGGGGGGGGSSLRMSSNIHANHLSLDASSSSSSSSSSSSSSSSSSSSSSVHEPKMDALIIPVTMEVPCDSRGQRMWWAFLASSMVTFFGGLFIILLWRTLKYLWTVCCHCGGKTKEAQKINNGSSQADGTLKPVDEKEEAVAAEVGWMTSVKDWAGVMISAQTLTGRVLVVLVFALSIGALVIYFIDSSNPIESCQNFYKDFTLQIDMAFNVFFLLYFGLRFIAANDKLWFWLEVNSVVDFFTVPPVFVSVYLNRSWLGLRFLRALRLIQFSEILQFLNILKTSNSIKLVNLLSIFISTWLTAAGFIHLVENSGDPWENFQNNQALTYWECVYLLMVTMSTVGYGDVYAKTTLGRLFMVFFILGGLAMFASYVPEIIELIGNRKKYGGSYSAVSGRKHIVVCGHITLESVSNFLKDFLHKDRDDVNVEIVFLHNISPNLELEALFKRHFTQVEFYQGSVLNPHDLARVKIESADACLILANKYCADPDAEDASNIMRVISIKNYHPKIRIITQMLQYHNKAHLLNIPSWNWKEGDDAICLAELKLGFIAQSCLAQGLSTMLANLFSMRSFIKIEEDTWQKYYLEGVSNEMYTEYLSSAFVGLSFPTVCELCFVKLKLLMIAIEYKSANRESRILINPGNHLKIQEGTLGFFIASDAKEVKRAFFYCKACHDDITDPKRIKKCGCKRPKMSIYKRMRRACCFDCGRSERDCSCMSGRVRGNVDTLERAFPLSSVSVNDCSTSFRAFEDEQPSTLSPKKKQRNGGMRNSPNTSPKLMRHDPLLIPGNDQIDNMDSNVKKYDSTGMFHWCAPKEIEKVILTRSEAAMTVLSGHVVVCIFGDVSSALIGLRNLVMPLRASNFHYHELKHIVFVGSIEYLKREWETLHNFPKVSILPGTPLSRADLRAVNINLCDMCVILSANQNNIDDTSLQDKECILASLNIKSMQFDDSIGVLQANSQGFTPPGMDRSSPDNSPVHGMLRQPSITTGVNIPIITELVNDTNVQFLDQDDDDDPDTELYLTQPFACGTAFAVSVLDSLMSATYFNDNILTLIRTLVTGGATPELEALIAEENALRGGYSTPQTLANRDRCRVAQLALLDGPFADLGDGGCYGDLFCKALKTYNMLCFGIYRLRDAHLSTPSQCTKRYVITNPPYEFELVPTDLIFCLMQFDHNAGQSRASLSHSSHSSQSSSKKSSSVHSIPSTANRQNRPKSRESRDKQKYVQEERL

[18] = test system: IGR39 cells; assay type: cell-based
[19] = test system: oral streptococci biofilm; assay type: cell-based, Streptococcus; details: all species
[20] = target: rat serum albumin (RSA) (Rattus norvegicus, UniProt P02770); assay type: binding; details: interaction density function method; two cooperative sites
Chain of rat serum albumin (RSA) (P02770 25-608): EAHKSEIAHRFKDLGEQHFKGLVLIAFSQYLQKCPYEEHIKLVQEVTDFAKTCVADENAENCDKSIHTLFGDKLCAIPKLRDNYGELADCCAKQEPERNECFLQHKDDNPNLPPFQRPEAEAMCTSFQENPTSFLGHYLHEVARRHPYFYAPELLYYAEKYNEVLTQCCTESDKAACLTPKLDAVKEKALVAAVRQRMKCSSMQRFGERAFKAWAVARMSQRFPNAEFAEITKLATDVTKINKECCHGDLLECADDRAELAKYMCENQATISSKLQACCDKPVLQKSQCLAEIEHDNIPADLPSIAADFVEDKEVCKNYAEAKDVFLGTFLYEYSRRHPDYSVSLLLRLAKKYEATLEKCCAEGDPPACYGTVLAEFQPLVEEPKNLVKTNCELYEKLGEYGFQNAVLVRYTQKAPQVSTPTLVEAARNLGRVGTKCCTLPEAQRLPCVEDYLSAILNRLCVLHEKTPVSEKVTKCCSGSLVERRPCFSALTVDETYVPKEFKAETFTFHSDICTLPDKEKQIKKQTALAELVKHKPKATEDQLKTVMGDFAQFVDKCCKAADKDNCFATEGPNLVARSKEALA

[21] = test system: paw edema; details: in vivo
[22] = test system: inflammation, nociception and oxidative stress; details: mouse, in vivo
[23] = test system: LUCENA cells; assay type: cell-based
[24] = test system: K562 cells; assay type: cell-based

For `Clc1ccc2c([Se]c3ccccc3)ccnc2c1` [4-PSQ, 7-Chloro-4-(phenylselanyl) quinoline], the hypersensitivity [1] was “reversed hypersensitivity induced by OXA and aging” and the “RS and NOx levels” value ([1]; both ages) was “reduced the RS and NOx levels”.

In the case of `CCCSc1ccc2nc(NC(=O)OC)[nH]c2c1` [Albendazole], the MIC [2] is reported as 0.047 to 3.12 µM (≈ 0.0125 to 0.829 µg/mL).

For `O=C(/C=C/c1ccc(O)c(O)c1)OCCc1ccccc1` [CAPE, phenethyl ester of caffeic acid], the protein aggregation [3] was “did not inhibit”.

In the case of `COc1cc2c(c(OC)c1OC)-c1ccc(OC)c(=O)cc1[C@@H](NC(C)=O)CC2` [COL, colchicine], the survival rate ([4]; 0.001-0.010 mg/mL) is reported as “did not affect the fly survival rate”, the TBARS levels [4] is reported as “elevated in the 0.0025 mg/mL and 0.005 mg/mL groups” and the “reactive species (RS) levels” value [4] is reported as “increase in RS levels at concentrations of 0.0025 and 0.005 mg/mL”.

In the case of `CC1=C(C(=O)O)N2C(=O)[C@@H](NC(=O)[C@H](N)c3ccccc3)[C@H]2SC1` [Cephalexin], the degradation [5] is reported as “highly sucesptible to degradation”.

With `c1ccc([C@H]2CN3CCSC3=N2)cc1` [Levamisole] the “effectiveness of inhibition of MV activity compared with ouabain” value [6] was “more effective”.

With `COc1ccc(Sc2ccc3nsnc3c2)cc1` [MTDZ, 5-((4-methoxyphenyl)thio)benzo[c][1,2,5]thiadiazole] the “behavioral changes caused by SCO” value [7] was “attenuated the behavioral changes caused by SCO”.

Work on `CC(C)(O)c1ccccc1CC[C@@H](SCC1(CC(=O)O)CC1)c1cccc(/C=C/c2ccc3ccc(Cl)cc3n2)c1` [Montelukast] yielded an inhibition at 0.1 µM [8] of 62 ± 8%.

For `CO[C@@H]1[C@@H](OC(N)=O)[C@@H](O)[C@H](Oc2ccc3c(O)c(NC(=O)c4ccc(O)c(CC=C(C)C)c4)c(=O)oc3c2C)OC1(C)C` [Novobiocin], the inhibition at 0.1 µM [8] was 60 ± 7%.

For `CC(C)c1cccc(C(C)C)c1O` [P, propofol], the “deformability index (DI)” value [9] was “decreases” and the “erythrocyte elastic modulus (μ)” value [9] was “significant increase”.

With `CC(=O)O[C@H]1C[C@@H]2CC[C@@H]3[C@H](CC[C@@]4(C)[C@H]3C[C@H]([N+]3(C)CCCCC3)[C@@H]4OC(C)=O)[C@@]2(C)C[C@@H]1N1CCCCC1` [V, vecuronium] the “surface viscosity (η)” value [9] was “increase”.

In the case of `NC(=O)NC1NC(=O)NC1=O` (centres unmarked) [allantoin], the “death caused by cisplatin” value [10] is reported as “reduction”.

For `O=C1C(O)=C([C@H]2CC[C@H](c3ccc(Cl)cc3)CC2)C(=O)c2ccccc21` [atovaquone], the “inhibition of SmDHODH” value [11] was “in the nanomolar range”.

`CO/C1=C\C(C)=C\[C@@H](C)[C@@H](O)[C@@H](C)C/C(C)=C/C=C/[C@H](OC)[C@@H]([C@@H](C)[C@@H](O)[C@H](C)C2(O)C[C@@H](O)[C@H](C)[C@@H](C(C)C)O2)OC1=O` (some centres unmarked) [bafilomycin] showed a Ki ([12]; Grande river population) of 21.2 ± 1.3 nM and a Ki ([12]; Tietê river population) of 35.1 ± 1.1 nM.

In the case of `N=C(N)c1ccccc1` [benzamidine], the “inhibition of CE-AρBza” value ([13]; BTEE as substrate) is reported as 100% and the “inhibition of CE-AρBza” value ([13]; L-TAME as substrate) is reported as 77%.

For `CC(C)c1cc2c(c(O)c1O)C[C@@]13CCCC(C)(C)[C@@H]1C[C@@H]2O3` [brussonol], the “significant inhibition of LbOYE activity” value [14] was “did not show significant inhibition”.

`COC(=O)Nc1nc2ccc(Sc3ccccc3)cc2[nH]1` [fenbendazole] showed an MIC [2] of 0.047 to 3.12 µM (≈ 0.0141 to 0.935 µg/mL).

With `COC(=O)Nc1nc2cc(C(=O)c3ccc(F)cc3)ccc2[nH]1` [flubendazole] the MIC [2] was 0.047 to 3.12 µM (≈ 0.0147 to 0.979 µg/mL).

Work on `COC(=O)Nc1nc2ccc(C(=O)c3ccccc3)cc2[nH]1` [mebendazole] yielded an MIC [2] of 0.047 to 3.12 µM (≈ 0.0139 to 0.923 µg/mL).

For `CN(C)C(=N)N=C(N)N` [metformin], the interaction with cisplatin [15] was “synergism”.

For `C[C@@H]1O[C@@H](O[C@H]2C[C@@H](O)[C@]3(CO)[C@H]4[C@H](O)C[C@]5(C)[C@@H](C6=CC(=O)OC6)CC[C@]5(O)[C@@H]4CC[C@]3(O)C2)[C@H](O)[C@H](O)[C@H]1O` [ouabain], the “MV activity in the presence of inhibitor” value ([6]; 31P-NMR and colorimetric techniques) was ~95%.

For `CN[C@H](CC(C)C)C(=O)N[C@H]1C(=O)N[C@@H](CC(N)=O)C(=O)N[C@H]2C(=O)N[C@H]3C(=O)N[C@H](C(=O)N[C@H](C(=O)O)c4cc(O)cc(O)c4-c4cc3ccc4O)[C@H](O)c3ccc(c(Cl)c3)Oc3cc2cc(c3O[C@@H]2O[C@H](CO)[C@@H](O)[C@H](O)[C@H]2O[C@H]2C[C@](C)(N)[C@H](O)[C@H](C)O2)Oc2ccc(cc2Cl)[C@H]1O` [vancomycin], the “reduction of the MIC value in combination” value [16] was 4 times.

For DCPIB, the currents ([17]; IGR37 cells) was “not in IGR37 cells”, the currents ([17]; Panc1, MiaPaca2 and IGR39 cells) was “dramatic increase of currents” and the “Ca2+ influx” value [18] was “induces a rapid Ca2+ influx”.

In the case of N-acetylcysteine [NAC], the “concentration shown to inhibit biofilm formation” value [19] is reported as 12.5 mg/mL.

With Piperlongumine [PPL] the binding constants [20] was “moderate binding constants”.

For Rhodium chloride [RhCl3], the paw edema [21] was “able to reduce paw edema”.

For “Se-[(2,2-dimethyl-1,3-dioxolan-4-yl) methyl] 4-chlorobenzoselenolate [Se-DMC]”, the NPSH content [22] was “No alteration” and the “RS levels in paw” value [22] was “reduced the RS levels”.

In the case of sodium selenite [Na2SeO3], the “reduction in cell number” value ([23]; 1000 μM, 48 hours) is reported as 66%, the “mitochondrial membrane potential (JC-1)” value ([23]; 24 hours) is reported as “only at concentrations of 100 μM and 1000 μM” and the proliferation [24] is reported as “significant reduction”. The “mitochondrial membrane potential (JC-1)” value ([24]; 24 hours) was “significant reduction for all concentration” and the “cell viability (MTT)” value ([24]; 48 hours) was “significant reduced only in 100 μM or 1000 μM”.
